Measured values published in PMC10707468, “Pharmacokinetics of Novel Dopamine Transporter Inhibitor CE-123 and Modafinil with a Focus on Central Nervous System Distribution” (International Journal of Molecular Sciences, 2023).
Where two headings read alike, the source gives them in different places.

Experiments:
[1] = NeuroPK parameters by Combinatory Mapping Approach; format: in vivo; settings: rat; for concentration at 4 h / Kp uu at 4 h: Sprague-Dawley, intravenous, 20 mg/kg; for concentration at 4 h: brain interstitial fluid, steady state, Equation (6), read-out: Unbound-drug concentration in brain interstitial fluid, Cu,brainISF; for Kp uu at 4 h: extent of BBB transport, Equation (4), read-out: Unbound brain-to-plasma concentration ratio, Kp,uu,brain; for Kp uu: brain slices (Vu,brain) and brain homogenate (fu,brain), Equation (5), Vu,brain·fu,brain, read-out: Unbound intracellular-to-extracellular (interstitial) concentration ratio, Kp,uu,cell; for Kp,uu at the blood–spinal cord barrier (BSCB): spinal-cord-to-plasma unbound ratio
Text: The neuropharmacokinetic (neuroPK) parameters of the novel DAT inhibitor as well as modafinil have so been far assessed based on the total drug concentration in the plasma and the entire brain, usually at a single time point in a non-dedicated PK study. Yet, the total brain-to-plasma concentration ratio (Kp,brain) is just one of the neuroPK parameters with a limited use for characterization of the extent of BBB transport. According to the Free Drug Theory, the concentration of unbound (free) drugs, particularly at a site of action like the brain, governs the pharmacological effect(s), emphasizing the significance of unbound drug concentrations in distribution processes. To this end, the unbound brain-to-plasma concentration ratio, Kp,uu,brain, is the key neuroPK parameter to obtain for the assessment of the extent of BBB transport. With the Combinatory Mapping Approach (CMA), evaluation of the neuroPK parameters of unbound drugs can be obtained in a more high-throughput mode, which makes it useful for CNS drug discovery. The CMA employs several in vivo and in vitro methods to provide a comprehensive assessment of drug properties concerning BBB transport and intra-brain distribution. In an in vivo neuroPK study, the total concentrations of drugs in the brain and plasma are determined at the steady state, which is pivotal for assessing Kp,brain (Figure 1(A1)). In parallel, in vitro investigations involve the determination of unbound fractions of drugs in the plasma (fu,plasma) and brain tissue binding properties (fu,brain) using equilibrium dialysis and the brain slice method (Vu,brain) (Figure 1(B1,C1)). Finally, a combination of these acquired parameters enables the estimation of Kp,uu,brain and the unbound drug cell partitioning coefficient (Kp,uu,cell). Kp,uu,brain represents the ratio of brain interstitial fluid (ISF) to the plasma unbound drug concentrations at the steady state, providing a quantitative description of the net BBB drug transport. This parameter relies on three compound-specific parameters, Kp,brain, Vu,brain, and fu,plasma. […] Kp,uu,cell represents the steady-state ratio of intracellular to extracellular unbound drug concentrations, describing the drug transport across the cellular membrane.
The unbound brain-to-plasma concentration ratio, Kp,uu,brain, was calculated by using the three compound-specific parameters: Kp,brain, Vu,brain, and fu,plasma:(4) Kp,uu,brain=Kp,brain/Vu,brain·fu,plasma
The unbound intracellular-to-extracellular (interstitial) concentration ratio, Kp,uu,cell, was estimated by using the Vu,brain and fu,brain parameters:(5) Kp,uu,cell=Vu,brain·fu,brain
Due to the multiparameter character of Kp,uu,brain and Kp,uu,cell assessment (Equations (4) and (5)), the estimation of variability around the mean values was calculated using an error propagation method as described in Loryan et al. (2017).
The Kp,uu,brain values were further used to calculate the unbound drug concentration in the brain interstitial fluid Cu,brain,ISF, according to Loryan et al. (2014):(6) Cu,brain,ISF=Kp,uu,brain·Cu,plasma

[2] = system: cerebEND in vitro model of the blood–brain barrier; assay: In vitro Transwell blood-brain barrier model based on mouse cell line cerebEND; format: in vitro ADME; settings: for Clin (rate of BBB transport) / Clout (rate of BBB transport): parameter used in simulation; for Pe rat: scaled with BBB surface area 180 cm2, similar permeability in rat assumed
Text: Research on modafinil analogs has gained significant momentum in recent decades due to the compound’s unique pharmacological properties and potential therapeutic applications. The primary objectives of these studies were to identify modafinil analogs that can address a wide range of cognitive deficits and neurological conditions effectively, with a reduced risk of side effects. In our previous study, we reported a series of modafinil analogs with higher DA reuptake inhibition activity and higher selectivity for the DAT in comparison to modafinil. These improvements were achieved by making strategic modifications involving the substitution of the carboxamide moiety with five- and six-membered aromatic heterocycles. […] In addition, Kristofova et al. (2018) have used the mouse cell line cerebEND as an in vitro model to study the ability of CE-123 to cross an in vitro model of the blood–brain barrier (BBB). […] Yet, due to significant differences in the plasma pharmacokinetic (PK) profiles, governed primarily by differences in metabolism, direct comparison between two compounds after single IP dosing could be misleading.
Table S4. Parameters used in simulation exercise.
Fraction of un bound in unitless 0.252 0.797
Rate of BBB transport parameters*
Ext ent of BBB transport and intra-brain dist ribution
Unbound brain-t o-plasma unitless 0.46 0.097 concentrati on rat io, Kp,uu,brain
Unbound volume of mL/g brain 5.21 3.73 distribution in brain, Vu,brain
Additional parameters used
Infusi on rate mg/h 0.05 1.0
* Data of blood-brain barrier per meation of 100 µM CE-123 and modafinil across an in vitro Transw ell model based on mouse cell line cerebEND were included in the simulation. Experimental procedures were published previously The permeability coefficients w ere calculated according to the clearance principle deduct ing blank inserts without cells.
**Similar apparent permeability in human BBB cell culture model and rat endot helial cells was assumed.

[3] = system: cerebEND in vitro model of the blood–brain barrier; settings: 100 µM CE-123 and modafinil, Transwell cerebEND, blank inserts deducted; cited from earlier work

| Structure (SMILES) | concentration at 4 h [1] | Kp uu at 4 h ([1]; brain) | Kp uu at 4 h [1] | fold difference in Kp,uu,brain, S-CE-123 vs R-modafinil [1] | Kp uu [1] | Kp,uu at the blood–spinal cord barrier (BSCB) [1] | Clin (rate of BBB transport) [2] | Clout (rate of BBB transport) [2] | Pe rat [2] | Pe (permeability coefficient) [3] |
| --- | --- | --- | --- | --- | --- | --- | --- | --- | --- | --- |
| [O-][S@@+](Cc1cncs1)C(c1ccccc1)c1ccccc1 [S-CE-123] | 386 nM | 0.5 | 0.46 ± 0.032 | ca. 5 fold | 0.18 ± 0.09 | closer to unity | 0.033 L/h | 0.071 L/h | 0.545 mL/min | 50 ×10⁻⁶ cm/s |
| NC(=O)C[S@@+]([O-])C(c1ccccc1)c1ccccc1 [R-modafinil, reference compound] | 282 nM | 0.1 | 0.097 ± 0.034 | – | 0.85 ± 0.6 | dominating net active efflux | 0.025 L/h | 0.261 L/h | 0.422 mL/min | 38.3 ×10⁻⁶ cm/s |
